# Experimental data as given in ChEMBL document CHEMBL2311259, “Synthesis of novel chromene derivatives of expected antitumor activity” (Eur J Med Chem, 2013).
# System: MCF7
# Experiment: Ratio of colchicine IC50 to compound IC50 for human MCF7 cells by SRB assay
# Format: functional
row,Structure (SMILES),Ratio IC50
1,COc1ccc2c(c1)Oc1ncn(N)c(=N)c1C2c1ccc(Cl)cc1 (mixture of isomers),1.5
2,CCOc1ccc2c(c1)Oc1ncn3nc(-c4ccc(OC)cc4)nc3c1C2c1ccc(Cl)cc1 (racemic),1.5
3,COc1ccc2c(c1)Oc1ncn(C)c(=N)c1C2c1ccc(Cl)cc1 (racemic),2
4,CCOC(=O)c1nc2c3c(ncn2n1)Oc1cc(OCC)ccc1C3c1ccc(Cl)cc1 (racemic),2
5,COc1ccc(-c2nc3c4c(ncn3n2)Oc2cc(OC)ccc2C4c2ccc(Cl)cc2)cc1 (racemic),1.5
